# In patent US20250107526A1, “METHOD OF IMPROVING PLANT GROWTH” (UPL CORPORATION LIMITED, priority 2022, published 2025):
# Experiments:
# Format in all cases: in vivo
# Cotton seeds = assay: Emergence speed index (ESI) of treated seeds, cotton; details: suspension concentrate of 40% cyazofamid
# Description: (§1) The seed emergence index was evaluated for seeds of different crops including corn, cotton and wheat treated with cyazofamid. The treatment protocol and the results are disclosed in the table below. […] A suspension concentrate of 40% cyazofamid was used in the treatment.
# [1] = test system: seeds of different crops including corn, cotton and wheat
# Description: as §1
# Wheat seeds = assay: Emergence speed index (ESI) of treated seeds, wheat; details: suspension concentrate of 40% cyazofamid
# Description: as §1
# [2] = test system: maize seeds inoculated with Pythium ultimum; assay: Emergence and vigor of maize seeds inoculated with Pythium ultimum after cyazofamid seed treatment (growth chamber); details: 160 g/l suspension concentrate, 20 days after sowing
# Description: An inoculum of Pythium ultimum isolated from cotton was used to inoculate maize seeds. The infected maize grains were mixed with soil in a ratio of 10:90 v/v, respectively. The seeds were treated as depicted in the Table 1 below. The seeds used in treatments 1, 3 and 4 were inoculated with Pythium ultimum. The said seeds were cultivated in a growth chamber at a temperature of 22° C., for a 10 h dark/14 h light photoperiod. The seed arrangement was 10 seeds/plot (pot 10×10 cm); 3rep1/treatment. [table] The % emergence of seeds and the % vigor was observed 20 days after sowing of seeds.
# wheat grains = assay: Plant growth improvement of wheat grains treated with cyazofamid, field trials
# Description: The present inventors have determined the plant growth improvement in wheat grains treated with cyazofamid in field trials. The treatments employed have been depicted in table 4 below. The results in terms of crop establishment in field, root weight, shoot weight and the total plant weight have been indicated in table 5 below: [table]
# Corn seeds = assay: Emergence speed index (ESI) of treated seeds, corn; details: suspension concentrate of 40% cyazofamid
# Description: as §1
# [3] = seed treatment 10 g/100/kg seeds
# [4] = seed treatment 50 g/100/kg seeds
# [5] = 10 g ai/100 kg (25 ml/100 kg seeds)
# [6] = 20 g ai/100 kg (50 ml/100 kg seeds)
# [7] = 30 g ai/100 kg (75 ml/100 kg seeds)
# [8] = 50 g ai/100 kg (125 ml/100 kg seeds)
# [9] = 100 g ai/100 kg (250 ml/100 kg seeds)
smiles,measurement,setting,value
"Cc1ccc(-c2c(Cl)nc(C#N)n2S(=O)(=O)N(C)C)cc1 [Cyazofamid, 4-chloro-2-cyano-N, N-dimethyl-5-p-tolylimidazole-1-sulfonamide]",Emergence speed index (ESI),Cotton seeds; 10 g ai/100 kg,6.9
same,Emergence speed index (ESI),Cotton seeds; 50 g ai/100 kg,6.3
same,Emergence speed index (ESI),Cotton seeds; 100 g ai/100 kg,6.5
same,phytotoxicity in the emergent plants,[1]; in vivo,no phytotoxicity observed
same,emergence index of treated seeds compared with untreated seeds,"[1]; in words, corn, cotton and wheat seeds, 10-100 g ai/100 kg",more efficient than untreated seeds
same,Emergence speed index (ESI),Wheat seeds; 10 g ai/100 kg,22.7
same,Emergence speed index (ESI),Wheat seeds; 50 g ai/100 kg,23.0
same,Emergence speed index (ESI),Wheat seeds; 100 g ai/100 kg,22.5
same,% emergence (20 DAS),[2]; [3],76.67%
same,% vigor (20 DAS),[2]; [3],86.67%
same,% emergence (20 DAS),[2]; [4],73.33%
same,% vigor (20 DAS),[2]; [4],83.33%
same,Root weight,wheat grains; [5],3.1 g
same,Shoot weight,wheat grains; [5],5.9 g
same,Total plant weight,wheat grains; [5],9.0 g
same,Crop establishment plants/m row 25 DAA,wheat grains; [5],81.5 plants/m row
same,Crop establishment plants/m row 38 DAA,wheat grains; [5],74.5 plants/m row
same,Root weight,wheat grains; [6],3.1 g
same,Shoot weight,wheat grains; [6],5.3 g
same,Total plant weight,wheat grains; [6],8.4 g
same,Crop establishment plants/m row 25 DAA,wheat grains; [6],73.1 plants/m row
same,Crop establishment plants/m row 38 DAA,wheat grains; [6],79.4 plants/m row
same,Root weight,wheat grains; [7],3.8 g
same,Shoot weight,wheat grains; [7],5.4 g
same,Total plant weight,wheat grains; [7],9.2 g
same,Crop establishment plants/m row 25 DAA,wheat grains; [7],74.8 plants/m row
same,Crop establishment plants/m row 38 DAA,wheat grains; [7],80.8 plants/m row
same,Root weight,wheat grains; [8],3.0 g
same,Shoot weight,wheat grains; [8],5.0 g
same,Total plant weight,wheat grains; [8],8.1 g
same,Crop establishment plants/m row 25 DAA,wheat grains; [8],75.6 plants/m row
same,Crop establishment plants/m row 38 DAA,wheat grains; [8],82.5 plants/m row
same,Root weight,wheat grains; [9],2.9 g
same,Shoot weight,wheat grains; [9],5.2 g
same,Total plant weight,wheat grains; [9],8.1 g
same,Crop establishment plants/m row 25 DAA,wheat grains; [9],74.0 plants/m row
same,Crop establishment plants/m row 38 DAA,wheat grains; [9],79.9 plants/m row
same,"crop establishment in field, root weight, shoot weight and total plant weight compared with untreated control","wheat grains; in words, treated wheat grains, 10-100 g ai/100 kg",higher
same,Emergence speed index (ESI),Corn seeds; 10 g ai/100 kg,32.7
same,Emergence speed index (ESI),Corn seeds; 50 g ai/100 kg,32.9
same,Emergence speed index (ESI),Corn seeds; 100 g ai/100 kg,32.6
